Measured values published in patent US20260183303A1, “PDK1 REGULATORY COMPOUND AND COMPOSITION CONTAINING THE SAME” (PROVIBIO CO., LTD., priority 2024, published 2026).
Counter-ions that a name gives are not always drawn.

Experiments:
[1] = system: Human B Lymphocyte cell line, SU-DHL-8; assay: Relative cell viability (CCK-8), SU-DHL-8; type: cell-based; details: for Relative cell viability (%): 48 hours, untreated cells (DMSO) = 100%
Procedure: Human-derived B lymphoma cell line SU-DHL-8 (Cat. #CRL-2961) purchased from ATCC was cultured in RPMI-1640 medium containing […], 100 U/mL penicillin, and 100 μg/mL streptomycin.
The cell culture medium was then harvested, centrifuged at 1,300 rpm for 5 minutes, and the supernatant was removed. The cells were resuspended in the same medium and dispensed into a 96-well plate (Costar 96-well cell culture plate, Corning) at 90 μL per well, resulting in the conditions specified in Table 5.
Then, 10 μL of CCK-8 was added to each well, and the plates were incubated again at 37° C. in a 5% CO2 incubator for 4 hours.
In other words, when the survival rate of untreated cells (DMSO) is set at 100%, the relative cell survival rate in each group treated with the drug at different concentrations is indicated.

[2] = system: T cells isolated from mouse spleens; assay: T cell proliferation inhibition (CFSE flow cytometry, anti-CD3/anti-CD28 activation); type: cell-based, C57BL/6 mice; details: mouse spleen T cells, CD3/CD28 activated, cultured three days
Procedure, shortened: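 Splenic T cells from 7-week-old C57BL/6 mice were CFSE-labelled and seeded at 2×10^5/well. They were activated with anti-CD3/anti-CD28 ([…]) and treated with compound at […] in triplicate for 3 days at 37 °C. Proliferation was read by CFSE dilution on flow cytometry and expressed as % inhibition.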

SMILES: CN1CCN(C2CCN(CCCCCCCCCCCCNC(=O)c3cccnc3N)CC2)CC1 [Compound 124, 2-Amino-N-(12-(4-(4-methylpiperazin-1-yl)piperidin-1-yl)dodecyl) nicotinamide]
- Relative cell viability (%) ([1]; SU-DHL-8, 1 μM): 30.43%
- Relative cell viability (%) ([1]; SU-DHL-8, 10 μM): 30.70%
- Relative cell viability (%) ([1]; SU-DHL-8, 30 μM): 32.10%
- Relative cell viability (%) ([1]; SU-DHL-8, 50 μM): 31.72%
- Proliferation inhibition rate (%) ([2]; 10 nM): 0.00%
- Proliferation inhibition rate (%) ([2]; 100 nM): 20.00%
- Proliferation inhibition rate (%) ([2]; 1 μM): 30.00%
- Proliferation inhibition rate (%) ([2]; 10 μM): 100.00%
- Proliferation inhibition rate (%) ([2]; 30 μM): 100.00%
- Proliferation inhibition rate (%) ([2]; 50 μM): 100.00%

SMILES: CC1CCN(CCCCCCCCCCCCNC(=O)c2cccnc2N)C1 (stereo not drawn) [Compound 24, 2-Amino-N-(12-(3-methylpyrrolidin-1-yl)dodecyl) nicotinamide]
- Relative cell viability (%) ([1]; SU-DHL-8, 30 μM): 0.62%
- Proliferation inhibition rate (%) ([2]; 100 nM): 100.00%
- Proliferation inhibition rate (%) ([2]; 1 μM): 100.00%
- Proliferation inhibition rate (%) ([2]; 10 μM): 100.00%
- Proliferation inhibition rate (%) ([2]; 30 μM): 100.00%
- Proliferation inhibition rate (%) ([2]; 50 μM): 100.00%

SMILES: Nc1ncccc1C(=O)NCCCCCCCCCCCCN1CCN(Cc2ccc(F)cc2)CC1 [Compound 27, 2-Amino-N-(12-(4-(4-fluorobenzyl)piperazin-1-yl)dodecyl) nicotinamide]
- Relative cell viability (%) ([1]; SU-DHL-8, 1 μM): 6.24%
- Relative cell viability (%) ([1]; SU-DHL-8, 10 μM): 4.97%
- Relative cell viability (%) ([1]; SU-DHL-8, 30 μM): 2.03%
- Relative cell viability (%) ([1]; SU-DHL-8, 50 μM): 0.56%
- Proliferation inhibition rate (%) ([2]; 10 nM): 2.27%
- Proliferation inhibition rate (%) ([2]; 100 nM): 83.33%
- Proliferation inhibition rate (%) ([2]; 1 μM): 100.00%
- Proliferation inhibition rate (%) ([2]; 10 μM): 100.00%
- Proliferation inhibition rate (%) ([2]; 30 μM): 100.00%
- Proliferation inhibition rate (%) ([2]; 50 μM): 100.00%

SMILES: O=C(NCCCCCCCCCCCCN1CCNCC1)c1ccc(-c2ccccc2)o1 [Compound 90, 5-Phenyl-N-(12-(piperazin-1-yl)dodecyl)furan-2-carboxamide hydrochloride]
- viability at 1 µM ([1]; Homo sapiens, SU-DHL-8, 48 h, read-out: Relative cell viability (%), SU-DHL-8, 1 μM, untreated cells (DMSO) = 100%): 7.19%
- viability at 10 µM ([1]; Homo sapiens, SU-DHL-8, 48 h, read-out: Relative cell viability (%), SU-DHL-8, 10 μM, untreated cells (DMSO) = 100%): 5.94%
- viability at 30 µM ([1]; Homo sapiens, SU-DHL-8, 48 h, read-out: Relative cell viability (%), SU-DHL-8, 30 μM, untreated cells (DMSO) = 100%): 2.48%
- viability at 50 µM ([1]; Homo sapiens, SU-DHL-8, 48 h, read-out: Relative cell viability (%), SU-DHL-8, 50 μM, untreated cells (DMSO) = 100%): 1.94%
- inhibition at 0.01 µM ([2]; Mus musculus, T-cell, 72 h, 10 nM, read-out: Proliferation inhibition rate (%)): -8.27%
- inhibition at 0.1 µM ([2]; Mus musculus, T-cell, 72 h, 100 nM, read-out: Proliferation inhibition rate (%)): -2.03%
- inhibition at 1 µM ([2]; Mus musculus, T-cell, 72 h, 1 μM, read-out: Proliferation inhibition rate (%)): 66.2%
- inhibition at 10 µM ([2]; Mus musculus, T-cell, 72 h, 10 μM, read-out: Proliferation inhibition rate (%)): 100%
- inhibition at 30 µM ([2]; Mus musculus, T-cell, 72 h, 30 μM, read-out: Proliferation inhibition rate (%)): 100%
- inhibition at 50 µM ([2]; Mus musculus, T-cell, 72 h, 50 μM, read-out: Proliferation inhibition rate (%)): 100%
